Data: US20120088667A1, “SAFENING AGENT” (priority 2009, published 2012)

Columns and labels:
oilseed rape = assay: Safening oilseed rape using a variety of safening compounds of classes (a) to (f) with herbicides; type: in vivo; conditions: herbicide Bifenox (with insecticide cypermethrin)
Description: Safening compounds were selected from the list of compounds below. The compounds used are highlighted in bold. • (a) Glucose (GL), hydrolysed starch, sucrose (S), fructose (FR), glycerol (G), glyceraldehydes, erythrose, ribulose, xylulose or arabinose or an ester or glycoside or metabolic equivalent of such a carbohydrate; • (b) an organic acid of the Krebs Tricarboxylic Acid Cycle or a metabolic precursor thereof (including citric (C), succinic (SU), malic, pyruvic, acetic and fumaric acids); • (c) a vitamin or coenzyme, eg thiamine (T), riboflavin (R), pyridoxine (P), pyridoxamine, pyridoxal, nicotinamide (N), folic acid (F), ascorbic acid (AA), Biotin (B) and vitamin B12 (B12) or a precursor thereof including nicotinic acid • (d) a purine or pyrimidine nucleoside, nucleotide or a metabolic precursor thereof, eg adenine, adenosine, thymine, thymidine, cytosine, guanine, guanosine, hypoxanthine, uracil, uridine or inosine, to act as structural precursors for nucleic acid synthesis. • (e) a naturally occurring fat or oil including olive, soya, coconut and corn (Oil) oils; • (f) an amino acid of a type that occurs naturally in plant proteins, eg glycine (GLY), alanine (AL), valine, leucine (LE), isoleucine, serine, threonine (THR), cysteine (CY), methionine (ME), aspartic acid, glutamic acid, glutamine (GLU), asparagine (AS), lysine (LY), hydroxylysine, arginine, histidine, phenylalanine, tyrosine, tryptophan, proline, or hydroxyproline. Statistical Layout: Randomised Complete Block trial, under glasshouse conditions, United Kingdom.

Winter wheat cv Alchemy = assay: Safening of herbicides from addition of auxin/auxin precursor and acetaminophen, winter wheat; conditions: auxins/precursors 10^-2 Molar, AC 3 g per hectare, 0-9 scale, 0=dead plant
PEA cv Ragtime [1] = assay: Root nodulation, rooting and safening, pea, compost of low pH (Examples 7.5 and 7.7)
Description: (§1) The safener/safening system and the fertiliser were applied to the crops either simultaneously or sequentially.
(§2) Co=100% Cobalt Sulphate (20 g per litre and per hectare). FF1=20 g per litre Cobalt Sulphate (as per Co above) plus “Miracle-Gro” at xl recommended rate (applied at 15 g per 2.5 sq metres). Miracle-Gro contains: 24% N, 4% P, 13% K, plus 0.02% B, 0.03% Cu, 0.19% Fe, 0.05% Mn, 0.001% Mo and 0.03% Zn. FF2=20 g per litre Cobalt Sulphate plus Miracle-Gro at ×2 recommended rate. SAF: at least one from class (f) each at <3 g/l, plus at least one from class (c).
PEA—TRIAL 5—cv Ragtime. Scored/Counted+28 Days after Spraying. Sown in Compost of Low pH (5.0-5.5) on 28 Apr. 2008. Spray Date (VC)=26 May, V1 Date=14 June. Scored/Measured on 9 July. […] No inoculum applied.
Sowing details etc as per Example 7.5.

NAVY BEAN cv Mogex [2] = assay: Root nodulation and safening, navy bean, compost of normal pH (Example 7.4); conditions: compost of normal pH (6.5)
Description: as §1, §2
NAVY BEAN cv Mogex. Scored/Counted+28 Days after Spraying. Dates as per Example 7.3 Above, but sown in compost of normal pH (6.5). Each treatment represents the mean value from 12 plants, within four replicates. No inoculum applied.

PEA cv Ragtime [3] = assay: Root nodulation and safening, pea, compost of normal pH (Example 7.6); conditions: compost of normal pH (6.5)
Description: as §1, §2
PEA—TRIAL 7.6—cv Ragtime. Dates as per Example 7.5 above, but sown in compost of normal pH (6.5). […] No inoculum was applied.

Glycine max (Soybean) = assay: Root nodulation and safening, soybean, compost of normal pH (Example 7.2); conditions: compost of normal pH (6.5)
Description: as §1, §2
Dates as per Example 7.1 above, but sown in compost of normal pH (6.5). Each treatment represents the mean values for 12 plants, within four replicates. Sowing density 110 kg/ha. Standard inoculant applied at sowing.

NAVY BEAN cv Mogex [4] = assay: Root nodulation and safening, navy bean, compost of low pH (Example 7.3); conditions: compost of low pH (5.0-5.5)
Description: as §1, §2
NAVY BEAN cv Mogex. Scored/Counted+28 Days after Spraying. Sown in Compost of low pH (5.0-5.5) on 29 Apr. 2008. Spray Date (VC)=27 May, V1 Date=16 June. Scored/Measured on 11 July. Each treatment represents the mean value of 12 plants, within four replicates. No inoculum applied.

Soybean = assay: Root nodulation and safening, soybean, compost of low pH (Example 7.1)
Description: as §1, §2
Scored/Counted+28 Days After Spraying. Sown in Compost of low pH (5.0-5.5) on 1 May 2008. Spray Date (VC)=4 June, V1 Date=20 June. Scored/Measured on 17 July. […] Seed density approx 110 kg/ha. Soybean treated with standard inoculant at sowing.

[5] = compost of low pH (5.0-5.5), V1, score 0-9
[6] = low pH compost, application at V1, 0-9 scale
[7] = V1, +28 days after spraying, no inoculum
[8] = Soybean, compost of low pH (5.0-5.5), V1, score 0-9

Structure (SMILES): Nc1ccccc1C(=O)O [2. AN (Anthranilic Acid)]
- Phytotoxicity (0-9) (0 = Dead) + 14 Days (oilseed rape; score 0-9, 0 = Dead, 14 days): 8.0
- Vigour (0-9) (0 = Dead) + 14 days (oilseed rape; score 0-9, 0 = Dead, 14 days): 8.0
- Phytotoxicity (0-9) (0 = Dead) + 28 Days (oilseed rape; score 0-9, 0 = Dead, 28 days): 8.0
- Vigour (0-9) (0 = Dead) + 28 Days (oilseed rape; score 0-9, 0 = Dead, 28 days): 8.0
- Rooting (0-9) (9 = Best Rooting) + 28 Days (oilseed rape; score 0-9, 9 = Best Rooting, 28 days): 8.0

Structure (SMILES): Nc1ccccc1C(=O)O [Anthranilic acid (AN)]
- Phytotoxicity (0-9) (0 = Dead) + 14 Days (Winter wheat cv Alchemy; 14 days after spraying): 8.0
- Phytotoxicity (0-9) (0 = Dead) + 28 Days (Winter wheat cv Alchemy; 28 days after spraying): 8.0

Structure (SMILES): O=S(=O)([O-])[O-].[Co+2] [cobalt, Cobalt Sulphate]
- Nodules Per Plant (V1) (PEA cv Ragtime [1]; compost of low pH (5.0-5.5), V1, +28 days after spraying, no inoculum): 16.4
- Nodulation Score (0-9) (V1) (PEA cv Ragtime [1]; [5]): 5.0
- Phyto-Toxicity Score (0-9) (V1) (PEA cv Ragtime [1]; [5]): 5.1
- Vigour Score (0-9) (V1) (PEA cv Ragtime [1]; [5]): 5.8
- Nodules Per Plant (VC) (PEA cv Ragtime [1]; compost of low pH (5.0-5.5), VC): 18.1
- Nod Score (0-9) (VC) (PEA cv Ragtime [1]; compost of low pH (5.0-5.5), VC, score 0-9): 5.3
- Nodules Per Plant (V1) (PEA cv Ragtime [1]; low pH compost, application at V1 (data from Example 7.5)): 16.4
- Nodulation Score (0-9) (V1) (PEA cv Ragtime [1]; [6]): 5.0
- Phyto-Toxicity Score (0-9) (V1) (PEA cv Ragtime [1]; [6]): 5.1
- Rooting Score (0-9) (V1) (PEA cv Ragtime [1]; [6]): 4.2
- Nodules Per Plant (V1) (NAVY BEAN cv Mogex [2]; [7]): 33.5
- Nodulation Score (0-9) (V1) (NAVY BEAN cv Mogex [2]; V1, score 0-9): 5.2
- Phyto-Toxicity Score (0-9) (V1) (NAVY BEAN cv Mogex [2]; V1, score 0-9): 7.3
- Vigour Score (0-9) (V1) (NAVY BEAN cv Mogex [2]; V1, score 0-9): 7.2
- Nodules Per Plant (VC) (NAVY BEAN cv Mogex [2]; VC): 31.8
- Nod Score (0-9) (VC) (NAVY BEAN cv Mogex [2]; VC, score 0-9): 5.0
- Nodules Per Plant (V1) (PEA cv Ragtime [3]; V1, no inoculum): 16.9
- Nodulation Score (0-9) (V1) (PEA cv Ragtime [3]; V1, score 0-9): 5.1
- Phyto-Toxicity Score (0-9) (V1) (PEA cv Ragtime [3]; V1, score 0-9): 6.9
- Vigour Score (0-9) (V1) (PEA cv Ragtime [3]; V1, score 0-9): 6.8
- Nodules Per Plant (VC) (PEA cv Ragtime [3]; VC): 17.4
- Nod Score (0-9) (VC) (PEA cv Ragtime [3]; VC, score 0-9): 5.2
- Nodules Per Plant (V1) (Glycine max (Soybean); V1, mean of 12 plants): 29.8
- Nodulation Score (0-9) (V1) (Glycine max (Soybean); V1, score 0-9): 5.5
- Phyto-Toxicity Score (0-9) (V1) (Glycine max (Soybean); V1, score 0-9): 8.0
- Vigour Score (0-9) (V1) (Glycine max (Soybean); V1, score 0-9): 6.5
- Nodules Per Plant (VC) (Glycine max (Soybean); VC): 28.0
- Nod Score (0-9) (VC) (Glycine max (Soybean); VC, score 0-9): 5.3
- Nodules Per Plant (V1) (NAVY BEAN cv Mogex [4]; [7]): 21.0
- Nodulation Score (0-9) (V1) (NAVY BEAN cv Mogex [4]; V1, score 0-9): 3.3
- Phyto-Toxicity Score (0-9) (V1) (NAVY BEAN cv Mogex [4]; V1, score 0-9): 5.7
- Vigour Score (0-9) (V1) (NAVY BEAN cv Mogex [4]; V1, score 0-9): 5.9
- Nodules Per Plant (VC) (NAVY BEAN cv Mogex [4]; VC): 23.8
- Nod Score (0-9) (VC) (NAVY BEAN cv Mogex [4]; VC, score 0-9): 3.8
- Nodules Per Plant (V1) (Soybean; Soybean, compost of low pH (5.0-5.5), V1, +28 days after spraying, mean of 12 plants): 27.3
- Nodulation Score (0-9) (V1) (Soybean; [8]): 5.2
- Phyto-Toxicity Score (0-9) (V1) (Soybean; [8]): 7.8
- Vigour Score (0-9) (V1) (Soybean; [8]): 6.0
- Nodules Per Plant (VC) (Soybean; Soybean, compost of low pH (5.0-5.5), VC, +28 days after spraying): 28.8
- Nod Score (0-9) (VC) (Soybean; Soybean, compost of low pH (5.0-5.5), VC, score 0-9): 5.4
- nodulation (Soybean; nitrogen fixing crops): increases nodulation
